# Molecular target: Eukaryotic translation initiation factor 4E (Homo sapiens, UniProt P06730)
# Test: Inhibitory concentration against 7-methyl-GTP binding to eukaryotic translation initiation factor 4E
# Sequence of Eukaryotic translation initiation factor 4E (P06730 whole entry): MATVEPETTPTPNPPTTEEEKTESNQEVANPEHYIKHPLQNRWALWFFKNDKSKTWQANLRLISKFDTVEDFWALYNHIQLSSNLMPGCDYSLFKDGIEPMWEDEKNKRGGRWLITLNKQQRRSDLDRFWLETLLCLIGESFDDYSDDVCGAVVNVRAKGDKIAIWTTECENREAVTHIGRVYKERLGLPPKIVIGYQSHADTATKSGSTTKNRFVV
row,IC50,Compound
1,> 400 µM,CN1CN(C2O[C@H](CO)[C@@H](O)[C@H]2O)C2=NC=NC(O)C21 (some centres not stated)
2,> 400 µM,CN1CN(C2O[C@H](CO)[C@@H](O)[C@H]2O)c2nc(N)[nH]c(=S)c21 (some centres not stated)

# Reference: BindingDB's records for doi:10.1016/j.bmcl.2005.01.080 (University of Minnesota, 2005)
